According to patent US11691949B2, “Quinoline sulfonamide compounds and their use as antibacterial agents” (OTAGO INNOVATION LIMITED, priority 2017, dated 2023):
Converted amounts (≈) assume the structure as drawn. Counter-ions that a name gives are not always drawn. Like-named read-outs stand apart in the source and are kept apart here.

Assays:
Format in all cases: cell-based
S. uberis ATCC 19436 [1] = assay: MIC by broth microdilution, S. uberis; details: Streptococcus uberis
Method in brief: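 Streptococcus uberis ATCC 19436 was tested in Todd Hewitt Broth by broth microdilution in 96-well flat bottom plates, in biological triplicate. Overnight cells were diluted to OD600 of approximately 0.025, giving about 5×10^5 cfu/mL in the wells. Compounds were serially diluted two-fold to 200 μl, incubated 24 h at 37° C. and 200 rpm, and the MIC was taken from OD600.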

S. aureus ATCC 6538 [2] = assay: MIC by broth microdilution, S. aureus; details: Staphylococcus aureus
Method in brief: (§1)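 Media: TSB or CAMHB for S. aureus, LB or CAMHB for E. coli, with zinc sulphate to 50 μM final where required. Cells at ~5×10^5 cfu/mL met two-fold compound series; growth was scored by OD600 after 24 h shaking at 37° C.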

E. coli ATCC 10596 = assay: MIC by broth microdilution, E. coli; details: Escherichia coli
Method in brief: as §1

S. uberis ATCC 19436 [3] = assay: MBC by Miles-Misra drop-plate method, S. uberis; details: Streptococcus uberis
Method: (§2) Antibacterial susceptibility testing was performed in triplicate (biological) by measuring minimum inhibitory concentrations (MICs) by broth microdilution in 96-well flat bottom microtiter plates (ThermoFisher Scientific, New Zealand). S. uberis ATCC 19436, S. aureus ATCC 6538, or E. coli ATCC 10596 cells grown overnight were diluted to an OD600 of approximately 0.025, so that the final concentration of cells in the MIC assay was approximately 5×10^5 cfu/mL in media as follows: S. uberis; Todd Hewitt Broth (THB), S. aureus; Tryptic Soy Broth (TSB) and Cation Adjusted Muller Hinton Broth (CAMHB), and E. coli; Lysogeny Borth (LB) and CAMHB, before being dispensed into microtiter wells. As required additional sterile Zinc Sulphate (Heptahydrate) was supplemented into the media, so the final concentration was 50 μM. Test compounds were added to starting wells and two-fold serial dilutions were undertaken to generate a range of inhibitor concentrations at a final volume of 200 μl. Media and test compound-free (untreated) controls were included in each microtiter plate in triplicate. After 24 h incubation at 37° C. and 200 rpm, the OD600 of wells were read using a Varioskan Flash plate reader (ThermoFisher Scientific, New Zealand). The MIC was reported as the lowest concentration of the test compound for which no growth occurred, as determined by OD600 readings. The minimum bactericidal concentration (MBC) was determined using the Miles-Misra drop-plate method to measure the viability of cells in response to test compound challenge.

S. aureus ATCC 6538 [4] = assay: MBC by Miles-Misra drop-plate method, S. aureus; details: Staphylococcus aureus
Method: as §2

E. coli ATCC 10536 = assay: MBC by Miles-Misra drop-plate method, E. coli; details: Escherichia coli
Method: as §2

[5] = ATCC19436, No Zinc, read-out: S. uberis ATCC 19436 MIC
[6] = ATCC19436, Zinc (50 μM), read-out: S. uberis ATCC 19436 MIC
[7] = ATCC6538, No Zinc, read-out: S. aureus ATCC 6538 MIC
[8] = ATCC6538, Zinc (50 μM), read-out: S. aureus ATCC 6538 MIC
[9] = ATCC 10536 / ATCC 10596, No Zinc, read-out: E. coli ATCC 10536 MIC
[10] = ATCC 10536 / ATCC 10596, Zinc (50 μM), read-out: E. coli ATCC 10536 MIC
[11] = ATCC19436, read-out: S. uberis ATCC 19436 MBC, No Zinc
[12] = ATCC19436, read-out: S. uberis ATCC 19436 MBC, Zinc (50 μM)
[13] = ATCC6538, read-out: S. aureus ATCC 6538 MBC, No Zinc
[14] = ATCC6538, read-out: S. aureus ATCC 6538 MBC, Zinc (50 μM)
[15] = ATCC10536, read-out: E. coli ATCC 10536 MBC, No Zinc
[16] = ATCC10536, read-out: E. coli ATCC 10536 MBC, Zinc (50 μM)
[17] = ATCC19436, No Zinc, read-out: S. uberis ATCC 19436 MBC
[18] = ATCC19436, Zinc (50 μM), read-out: S. uberis ATCC 19436 MBC
[19] = ATCC6538, No Zinc, read-out: S. aureus ATCC 6538 MBC
[20] = ATCC6538, Zinc (50 μM), read-out: S. aureus ATCC 6538 MBC
[21] = ATCC10536, No Zinc, read-out: E. coli ATCC 10536 MBC
[22] = ATCC10536, Zinc (50 μM), read-out: E. coli ATCC 10536 MBC

SMILES	MIC (S. uberis ATCC 19436 [1]; [5]) [µg/mL]	MIC (S. uberis ATCC 19436 [1]; [6]) [µg/mL]	MIC (S. aureus ATCC 6538 [2]; [7]) [µg/mL]	MIC (S. aureus ATCC 6538 [2]; [8]) [µg/mL]	MIC (E. coli ATCC 10596; [9]) [µg/mL]	MIC (E. coli ATCC 10596; [10]) [µg/mL]	other results
O=C(N/N=C/c1ccc2cccc(NS(=O)(=O)c3ccc(C(F)(F)F)cc3)c2n1)C1CCCNC1 (mixture of isomers) [ZDR124, (E/Z)—N-(2-((2-(Piperidine-3-carbonyl)hydrazineylidene)methyl)quinolin-8-yl)-4-(trifluoromethyl)benzenesulfonamide trifluoroacetate]	32	16	16	16	128	32	MBC (S. uberis ATCC 19436 [3]; [11]): 16 µg/mL; MBC (S. uberis ATCC 19436 [3]; [12]): 16 µg/mL; MBC (S. aureus ATCC 6538 [4]; [13]): > 256 µg/mL; MBC (S. aureus ATCC 6538 [4]; [14]): > 256 µg/mL; MBC (E. coli ATCC 10536; [15]): 128 µg/mL; MBC (E. coli ATCC 10536; [16]): 32 µg/mL
CN(C)Cc1ccc2cccc(NS(=O)(=O)c3ccc(C(F)(F)F)cc3)c2n1.Cl [ZDR022-HCl, N-(2-((Dimethylamino)methyl)quinolin-8-yl)-4-(trifluoromethyl)-benzenesulfonamide HCl]	256	0.125	64	4	> 256	> 256	MBC (S. uberis ATCC 19436 [3]; [17]): > 256 µg/mL; MBC (S. uberis ATCC 19436 [3]; [18]): 0.125 µg/mL; MBC (S. aureus ATCC 6538 [4]; [19]): 128 µg/mL; MBC (S. aureus ATCC 6538 [4]; [20]): 256 µg/mL; MBC (E. coli ATCC 10536; [21]): > 256 µg/mL; MBC (E. coli ATCC 10536; [22]): > 256 µg/mL
CN(C)CCCNCc1ccc2cccc(NS(=O)(=O)c3ccc(C(F)(F)F)cc3)c2n1 [ZDR090, N-(2-(((3-(Dimethylamino)propyl)amino)methyl)quinolin-8-yl)-4-(trifluoromethyl)benzenesulfonamide di-trifluoroacetate]							MIC (S. uberis ATCC 19436 [1]; ATCC19436, read-out: S. uberis ATCC 19436 MIC, No Zinc): 4 µg/mL (≈ 8.57 µM); MIC (S. uberis ATCC 19436 [1]; ATCC19436, read-out: S. uberis ATCC 19436 MIC, Zinc (50 μM)): 0.5 µg/mL (≈ 1.07 µM); MIC (S. aureus ATCC 6538 [2]; ATCC6538, read-out: S. aureus ATCC 6538 MIC, No Zinc): 16 µg/mL (≈ 34.3 µM); MIC (S. aureus ATCC 6538 [2]; ATCC6538, read-out: S. aureus ATCC 6538 MIC, Zinc (50 μM)): 16 µg/mL (≈ 34.3 µM); MIC (E. coli ATCC 10596; ATCC 10536 / ATCC 10596, read-out: E. coli ATCC 10536 MIC, No Zinc): 16 µg/mL (≈ 34.3 µM); MIC (E. coli ATCC 10596; ATCC 10536 / ATCC 10596, read-out: E. coli ATCC 10536 MIC, Zinc (50 μM)): 16 µg/mL (≈ 34.3 µM); MBC (S. uberis ATCC 19436 [3]; [11]): 8 µg/mL (≈ 17.1 µM); MBC (S. uberis ATCC 19436 [3]; [12]): 0.5 µg/mL (≈ 1.07 µM); MBC (S. aureus ATCC 6538 [4]; [13]): 16 µg/mL (≈ 34.3 µM); MBC (S. aureus ATCC 6538 [4]; [14]): 32 µg/mL (≈ 68.6 µM); MBC (E. coli ATCC 10536; [15]): 16 µg/mL (≈ 34.3 µM); MBC (E. coli ATCC 10536; [16]): 16 µg/mL (≈ 34.3 µM)
O=S(=O)(Nc1cccc2ccc(CNCCCO)nc12)c1ccc(C(F)(F)F)cc1 [ZDR091, N-(2-(((3-Hydroxypropyl)amino)methyl)quinolin-8-yl)-4-(trifluoromethyl)benzenesulfonamide]	32 (≈ 72.8 µM)	0.125 (≈ 0.284 µM)	64 (≈ 146 µM)	32 (≈ 72.8 µM)	256 (≈ 583 µM)	256 (≈ 583 µM)	MBC (S. uberis ATCC 19436 [3]; [17]): 16 µg/mL (≈ 36.4 µM); MBC (S. uberis ATCC 19436 [3]; [18]): 0.5 µg/mL (≈ 1.14 µM); MBC (S. aureus ATCC 6538 [4]; [19]): > 256 µg/mL; MBC (S. aureus ATCC 6538 [4]; [20]): 128 µg/mL (≈ 291 µM); MBC (E. coli ATCC 10536; [21]): 256 µg/mL (≈ 583 µM); MBC (E. coli ATCC 10536; [22]): 128 µg/mL (≈ 291 µM)
O=S(=O)(Nc1cccc2ccc(CNC(CO)CO)nc12)c1ccc(C(F)(F)F)cc1 [ZDR092, N-(2-(((1,3-Dihydroxypropan-2-yl)amino)methyl)quinolin-8-yl)-4-(trifluoromethyl)benzenesulfonamide]	64 (≈ 141 µM)	16 (≈ 35.1 µM)	32 (≈ 70.3 µM)	32 (≈ 70.3 µM)	> 256	> 256	MBC (S. uberis ATCC 19436 [3]; [17]): 64 µg/mL (≈ 141 µM); MBC (S. uberis ATCC 19436 [3]; [18]): 8 µg/mL (≈ 17.6 µM); MBC (S. aureus ATCC 6538 [4]; [19]): 256 µg/mL (≈ 562 µM); MBC (S. aureus ATCC 6538 [4]; [20]): 32 µg/mL (≈ 70.3 µM); MBC (E. coli ATCC 10536; [21]): 256 µg/mL (≈ 562 µM); MBC (E. coli ATCC 10536; [22]): > 256 µg/mL
O=S(=O)(Nc1cccc2ccc(CNCCc3ccccn3)nc12)c1ccc(C(F)(F)F)cc1 [ZDR095, N-(2-(((2-(Pyridin-2-yl)ethyl)amino)methyl)quinolin-8-yl)-4-(trifluoromethyl)benzenesulfonamide]	> 256	0.125 (≈ 0.257 µM)	64 (≈ 132 µM)	8 (≈ 16.4 µM)	128 (≈ 263 µM)	> 256	MBC (S. uberis ATCC 19436 [3]; [17]): > 256 µg/mL; MBC (S. uberis ATCC 19436 [3]; [18]): 1 µg/mL (≈ 2.06 µM); MBC (S. aureus ATCC 6538 [4]; [19]): > 128 µg/mL; MBC (S. aureus ATCC 6538 [4]; [20]): > 256 µg/mL; MBC (E. coli ATCC 10536; [21]): 128 µg/mL (≈ 263 µM); MBC (E. coli ATCC 10536; [22]): 256 µg/mL (≈ 526 µM)
CCCN(CCC)Cc1ccc2cccc(NS(=O)(=O)c3ccc(C(F)(F)F)cc3)c2n1 [ZDR409, N-(2-((Dipropylamino)methyl)quinolin-8-yl)-4-(trifluoromethyl)benzenesulfonamide]	256 (≈ 550 µM)	0.125 (≈ 0.269 µM)	64 (≈ 137 µM)	256 (≈ 550 µM)	> 256	> 256	
C=CS(=O)(=O)Nc1cccc2ccc(CN(C)C)nc12 [ZDR500, N-(2-((Dimethylamino)methyl)quinolin-8-yl)ethenesulfonamide]	> 256	0.5 (≈ 1.72 µM)	256 (≈ 879 µM)	> 256	> 256	> 256	
Cc1cc(CS(=O)(=O)Nc2cccc3ccc(CN(C)C)nc23)no1 [ZDR501, N-(2-((Dimethylamino)methyl)quinolin-8-yl)-1-(5-methylisoxazol-3-yl)methanesulfonamide]	> 256	0.25 (≈ 0.694 µM)	256 (≈ 710 µM)	> 256	> 256	> 256	

Now from value to molecule, other results behind:

MIC (S. uberis ATCC 19436 [1]; [5]) [µg/mL]	MIC (S. uberis ATCC 19436 [1]; [6]) [µg/mL]	MIC (S. aureus ATCC 6538 [2]; [7]) [µg/mL]	MIC (S. aureus ATCC 6538 [2]; [8]) [µg/mL]	MIC (E. coli ATCC 10596; [9]) [µg/mL]	MIC (E. coli ATCC 10596; [10]) [µg/mL]	SMILES	other results
> 256	0.25 (≈ 0.715 µM)	> 256	> 256	> 256	> 256	CN(C)Cc1ccc2cccc(NS(=O)(=O)C3CCOCC3)c2n1 [ZDR502, N-(2-((Dimethylamino)methyl)quinolin-8-yl)tetrahydro-2H-pyran-4-sulfonamide]	
> 256	0.125 (≈ 0.391 µM)	> 256	256 (≈ 801 µM)	> 256	> 256	CN(C)Cc1ccc2cccc(NS(=O)(=O)CC3CC3)c2n1 [ZDR503, 1-Cyclopropyl-N-(2-((dimethylamino)methyl)quinolin-8-yl)methanesulfonamide]	
> 256	0.5 (≈ 1.38 µM)	> 256	256 (≈ 704 µM)	> 256	> 256	CN(C)Cc1ccc2cccc(NS(=O)(=O)CC3CCOCC3)c2n1 [ZDR504, N-(2-((Dimethylamino)methyl)quinolin-8-yl)-1-(tetrahydro-2H-pyran-4-yl)methanesulfonamide]	
> 256	0.25 (≈ 0.64 µM)	> 256	256 (≈ 655 µM)	> 256	> 256	CN(C)Cc1ccc2cccc(NS(=O)(=O)Cc3ccc(Cl)nc3)c2n1 [ZDR505, 1-(6-Chloropyridin-3-yl)-N-(2-((dimethylamino)methyl)quinolin-8-yl)methanesulfonamide]	
256 (≈ 844 µM)	2 (≈ 6.59 µM)	> 256	> 256	> 256	> 256	C#CCS(=O)(=O)Nc1cccc2ccc(CN(C)C)nc12 [ZDR506, N-(2-((Dimethylamino)methyl)quinolin-8-yl)prop-2-yne-1-sulfonamide]	
